From patent US20240132431A1, “METHOD FOR ALKYLATING ACIDIC FUNCTIONAL GROUP” (Chugai Seiyaku Kabushiki Kaisha, priority 2021, published 2024)
Blank lines part the entries; values can stand above or below the compound they belong to.

Target: T1, Bcl-2 protein (Recombinant Human Bcl-2 Protein) (Homo sapiens, UniProt P10415)
T1 construct: purchased Novus NBP2-34889
Experiment: Binding evaluation of mixture library compounds to Bcl-2 using AS-MS (affinity selection mass spectrometry)
Conditions: for ASMS ratio (%) n = 1 / ASMS ratio (%) n = 2: ASMS Ratio(%)=(A−C)/B×100; for ASMS ratio (%) n = 1: replicate n = 1; for ASMS ratio (%) n = 2: replicate n = 2
Summary of the method: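 ASMS Ratio (%) was calculated as (A−C)/B×100, where A is the protein sample after SEC, B the protein-free sample without SEC and C the protein-free sample after SEC. Each compound was at […] in a 1200-member pool with 20 μM Bcl-2, incubated 1 h at 23° C.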

[1] = AS-MS on the mixture of 1200 library compounds
[2] = AS-MS, mixture of 1200 compounds, Bcl-2

T1 sequence (P10415 whole entry): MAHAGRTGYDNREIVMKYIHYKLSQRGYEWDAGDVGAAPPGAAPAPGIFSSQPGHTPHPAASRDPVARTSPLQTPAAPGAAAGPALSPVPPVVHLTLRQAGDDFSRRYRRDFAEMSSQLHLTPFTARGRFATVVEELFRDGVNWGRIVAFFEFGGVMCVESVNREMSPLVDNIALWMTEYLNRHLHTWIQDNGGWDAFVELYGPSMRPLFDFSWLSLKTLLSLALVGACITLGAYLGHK

Compound: CCOc1cncc(C#Cc2ccccc2C(=O)N2CCN(c3ccc(C(=O)Nc4ccc(OC)cc4)cc3)CC2)c1 [B1O030-01, 4-[4-[2-[2-(5-Ethoxypyridin-3-yl)ethynyl]benzoyl]piperazin-1-yl]-N-(4-methoxyphenyl)benzamide]
ASMS ratio (%) n = 1 [1]: 1.8%
ASMS ratio (%) n = 2 [1]: −2.0%

Compound: 4-[4-[[2-(5-Ethoxypyridin-3-yl)phenyl]methyl]piperazin-1-yl]-N-propylbenzamide [B1M041-01]
ASMS ratio (%) n = 1 [2]: 0.7%
ASMS ratio (%) n = 2 [2]: −3.5%

Compound: CCOc1cccc(-c2ccc(C(C)N3CCN(c4ccc(C(=O)Nc5ccc(OC)cc5)cc4)CC3)cc2)c1 (stereo not drawn) [B1O097-01, 4-[4-[1-[4-(3-Ethoxyphenyl)phenyl]ethyl]piperazin-1-yl]-N-(4-methoxyphenyl)benzamide]
ASMS ratio (%) n = 1 [1]: 4.2%
ASMS ratio (%) n = 2 [1]: 2.2%

Compound: CCOc1cncc(-c2ccc(C(=O)N3CCN(c4ccc(C(=O)NCC56CC7CC(CC(C7)C5)C6)nn4)CC3)cc2C)c1 [B1A004-01, N-(1-Adamantylmethyl)-6-[4-[4-(5-ethoxypyridin-3-yl)-3-methylbenzoyl]piperazin-1-yl]pyridazine-3-carboxamide]
ASMS ratio (%) n = 1 [2]: −6.2%
ASMS ratio (%) n = 2 [2]: 2.6%

Compound: CCOc1cccc(-c2ccccc2CCC(=O)N2CCN(c3ccc(C(=O)N(C)CC45CC6CC(CC(C6)C4)C5)cc3)CC2)c1 [B3A033-01, N-(1-Adamantylmethyl)-4-[4-[3-[2-(3-ethoxyphenyl)phenyl]propanoyl]piperazin-1-yl]-N-methylbenzamide]
ASMS ratio (%) n = 1 [1]: 1.1%
ASMS ratio (%) n = 2 [1]: −0.6%

Compound: CCOc1cncc(-c2cnn(-c3cc(C(=O)N4CCN(c5ccc(C(=O)N(C)CC67CC8CC(CC(C8)C6)C7)cc5)CC4)cc(C(F)(F)F)c3)c2)c1 [B3A044-01, N-(1-Adamantylmethyl)-4-[4-[3-[4-(5-ethoxypyridin-3-yl)pyrazol-1-yl]-5-(trifluoromethyl)benzoyl]piperazin-1-yl]-N-methylbenzamide]
ASMS ratio (%) n = 1 [1]: 12.3%
ASMS ratio (%) n = 2 [1]: −12.4%

Compound: CCOc1cncc(-c2ccc(CN3CCN(c4ccc(C(=O)NS(=O)(=O)CC56CC7CC(CC(C7)C5)C6)cc4)CC3)cc2C)c1 [B2A048-01, N-(1-Adamantylmethylsulfonyl)-4-[4-[[4-(5-ethoxypyridin-3-yl)-3-methylphenyl]methyl]piperazin-1-yl]benzamide]
ASMS ratio (%) n = 1 (AS-MS, mixture library, Bcl-2): 18.2%
ASMS ratio (%) n = 2 (AS-MS, mixture library, Bcl-2): 2.1%

Compound: CCOc1cncc(-c2ccc(C(=O)N3CCN(c4ccc(C(=O)NS(=O)(=O)c5ccc(NCCSc6ccccc6)c(C(F)(F)F)c5)nn4)CC3)c3ccccc23)c1 [B2R014-01, 6-[4-[4-(5-Ethoxypyridin-3-yl)naphthalene-1-carbonyl]piperazin-1-yl]-N-[4-(2-phenylsulfanylethylamino)-3-(trifluoromethyl)phenyl]sulfonylpyridazine-3-carboxamide]
ASMS ratio (%) (n = 1): 18.6%
ASMS ratio (%) (n = 2): 15.1%

Compound: CCOc1cncc(C#Cc2cncc(C(=O)N3CCN(c4ccc(C(=O)NS(=O)(=O)C(C)(C)C)cc4)CC3)c2)c1 [B2L032-01, N-tert-Butylsulfonyl-4-[4-[5-[2-(5-ethoxypyridin-3-yl)ethynyl]pyridine-3-carbonyl]piperazin-1-yl]benzamide]
ASMS ratio (%) (n = 1): 0.0%
ASMS ratio (%) (n = 2): −1.0%

Compound: CCOc1cncc(C#Cc2cc(C(=O)N3CCN(c4ccc(C(=O)N(CC)CC)nn4)CC3)cc(C(F)(F)F)c2)c1 [B4J020-01, 6-[4-[3-[2-(5-Ethoxypyridin-3-yl)ethynyl]-5-(trifluoromethyl)benzoyl]piperazin-1-yl]-N,N-diethylpyridazine-3-carboxamide]
ASMS ratio (%) n = 1 [1]: 0.0%
ASMS ratio (%) n = 2 [1]: 0.0%

Compound: CCOc1cncc(-c2ccc(C(=O)N3CCN(c4ccc(C(=O)NS(=O)(=O)c5ccc(NCCSc6ccccc6)c([N+](=O)[O-])c5)cc4)CC3)cc2F)c1 [B2Q028-01, 4-[4-[4-(5-Ethoxypyridin-3-yl)-3-fluorobenzoyl]piperazin-1-yl]-N-[3-nitro-4-(2-phenylsulfanylethylamino)phenyl]sulfonylbenzamide]
ASMS ratio (%) n = 1 (AS-MS, mixture library, Bcl-2): 0.0%
ASMS ratio (%) n = 2 (AS-MS, mixture library, Bcl-2): −3.7%

Compound: 6-[4-[3-tert-Butyl-5-(3-ethoxyphenyl)benzoyl]piperazin-1-yl]-N-propylpyridazine-3-carboxamide [B1M060-01]
ASMS ratio (%) n = 1 [2]: 0.0%
ASMS ratio (%) n = 2 [2]: 0.0%

Compound: CCOc1cncc(-c2cc(OC)c(CN3CCN(c4ccc(C(=O)NS(=O)(=O)CC56CC7CC(CC(C7)C5)C6)cc4)CC3)c(OC)c2)c1 [B2A060-01, N-(1-Adamantylmethylsulfonyl)-4-[4-[[4-(5-ethoxypyridin-3-yl)-2,6-dimethoxyphenyl]methyl]piperazin-1-yl]benzamide]
ASMS ratio (%) n = 1 (AS-MS, mixture library, Bcl-2): 0.0%
ASMS ratio (%) n = 2 (AS-MS, mixture library, Bcl-2): 0.0%

Compound: CCOc1cncc(-c2ccc(CN3CCN(c4ccc(C(=O)NCC(F)(F)F)cc4)CC3)cc2C)c1 [B1K048-01, 4-[4-[[4-(5-Ethoxypyridin-3-yl)-3-methylphenyl]methyl]piperazin-1-yl]-N-(2,2,2-trifluoroethyl)benzamide]
ASMS ratio (%) n = 1 [2]: 0.1%
ASMS ratio (%) n = 2 [2]: 1.2%

Compound: CCOc1cccc(C#Cc2ccccc2CN2CCN(c3ccc(C(=O)NS(=O)(=O)CC45CC6CC(CC(C6)C4)C5)nn3)CC2)c1 [B2A095-01, N-(1-Adamantylmethylsulfonyl)-6-[4-[[2-[2-(3-ethoxyphenyl)ethynyl]phenyl]methyl]piperazin-1-yl]pyridazine-3-carboxamide]
ASMS ratio (%) n = 1 (AS-MS, mixture library, Bcl-2): 1.6%
ASMS ratio (%) n = 2 (AS-MS, mixture library, Bcl-2): 13.8%

Compound: CCOc1cccc(-c2ccc(C(=O)N3CCN(c4ccc(C(=O)Nc5ccc(OC)cc5)nn4)CC3)cc2F)c1 [B1O005-01, 6-[4-[4-(3-Ethoxyphenyl)-3-fluorobenzoyl]piperazin-1-yl]-N-(4-methoxyphenyl)pyridazine-3-carboxamide]
ASMS ratio (%) n = 1 [1]: 3.6%
ASMS ratio (%) n = 2 [1]: −2.5%

Compound: CCOc1cncc(-c2ccc(CN3CCN(c4ccc(C(=O)NS(=O)(=O)c5ccc(NCCSc6ccccc6)c(C(F)(F)F)c5)cc4)CC3)cc2C)c1 [B2R048-01]
ASMS ratio (%) (n = 1): 9.2%
ASMS ratio (%) (n = 2): 7.5%

Results, then the compound that gave them:

ASMS ratio (%) n = 1 (AS-MS, mixture library, Bcl-2): −1.3%
ASMS ratio (%) n = 2 (AS-MS, mixture library, Bcl-2): 0.1%
Compound: CCOc1cncc(-c2csc(CN3CCN(c4ccc(C(=O)N(CC)CC)nn4)CC3)c2)c1 [B4J094-01]

ASMS ratio (%) n = 1 (AS-MS, mixture library, Bcl-2): −5.2%
ASMS ratio (%) n = 2 (AS-MS, mixture library, Bcl-2): 3.6%
Compound: CCOc1cncc(-c2cc(CN3CCN(c4ccc(C(=O)NS(=O)(=O)CC56CC7CC(CC(C7)C5)C6)cc4)CC3)cc(C(F)(F)F)c2)c1 [B2A062-01, N-(1-Adamantylmethylsulfonyl)-4-[4-[[3-(5-ethoxypyridin-3-yl)-5-(trifluoromethyl)phenyl]methyl]piperazin-1-yl]benzamide]

ASMS ratio (%) (n = 1): 0.0%
ASMS ratio (%) (n = 2): 0.0%
Compound: CCOc1cncc(-c2ccc(CN3CCN(c4ccc(C(=O)NS(=O)(=O)CCC(F)(F)F)cc4)CC3)c3ccccc23)c1 [B2N066-01, 4-[4-[[4-(5-Ethoxypyridin-3-yl)naphthalen-1-yl]methyl]piperazin-1-yl]-N-(3,3,3-trifluoropropylsulfonyl)benzamide]

ASMS ratio (%) n = 1 [2]: 0.0%
ASMS ratio (%) n = 2 [2]: −0.4%
Compound: CCOc1cncc(-c2ccccc2CCC(=O)N2CCN(c3ccc(C(=O)NCC(F)(F)F)nn3)CC2)c1 [B1K012-01, 6-[4-[3-[2-(5-Ethoxypyridin-3-yl)phenyl]propanoyl]piperazin-1-yl]-N-(2,2,2-trifluoroethyl)pyridazine-3-carboxamide]

ASMS ratio (%) (n = 1): 0.0%
ASMS ratio (%) (n = 2): 0.0%
Compound: CCOc1cncc(-c2cc(CN3CCN(c4ccc(C(=O)NS(=O)(=O)CCC(F)(F)F)cc4)CC3)cc(OC(F)(F)F)c2)c1 [B2N064-01, 4-[4-[[3-(5-Ethoxypyridin-3-yl)-5-(trifluoromethoxy)phenyl]methyl]piperazin-1-yl]-N-(3,3,3-trifluoropropylsulfonyl)benzamide]

ASMS ratio (%) (n = 1): 0.0%
ASMS ratio (%) (n = 2): 0.0%
Compound: CCOc1cccc(-c2cc(CN3CCN(c4ccc(C(=O)NS(=O)(=O)CCC(F)(F)F)cc4)CC3)cc(OCC)c2)c1 [B2N055-01, 4-[4-[[3-Ethoxy-5-(3-ethoxyphenyl)phenyl]methyl]piperazin-1-yl]-N-(3,3,3-trifluoropropylsulfonyl)benzamide]

ASMS ratio (%) (n = 1): 0.0%
ASMS ratio (%) (n = 2): 0.0%
Compound: CCOc1cncc(-c2cc(CN3CCN(c4ccc(C(=O)NS(=O)(=O)CCC(F)(F)F)nn4)CC3)cc(C(F)(F)F)c2)c1 [B2N088-01, 6-[4-[3-(5-Ethoxypyridin-3-yl)-5-(trifluoromethyl)phenylmethyl]piperazin-1-yl]-N-(3,3,3-trifluoropropylsulfonyl)pyridazine-3-carboxamide]

ASMS ratio (%) (n = 1): 0.0%
ASMS ratio (%) (n = 2): 0.0%
Compound: CCOc1cccc(-c2ccc(CN3CCN(c4ccc(C(=O)NS(C)(=O)=O)nn4)CC3)cc2F)c1 [B2I077-01, 6-[4-[[4-(3-Ethoxyphenyl)-3-fluorophenyl]methyl]piperazin-1-yl]-N-methylsulfonylpyridazine-3-carboxamide]

ASMS ratio (%) (n = 1): 0.0%
ASMS ratio (%) (n = 2): 0.0%
Compound: CCOc1cccc(-c2cc(CN3CCN(c4ccc(C(=O)NS(=O)(=O)CCC(F)(F)F)nn4)CC3)cc(OCC)c2)c1 [B2N081-01, 6-[4-[[3-Ethoxy-5-(3-ethoxyphenyl)phenyl]methyl]piperazin-1-yl]-N-(3,3,3-trifluoropropylsulfonyl)pyridazine-3-carboxamide]

ASMS ratio (%) (n = 1): 0.0%
ASMS ratio (%) (n = 2): 0.0%
Compound: CCOc1cncc(-c2cc(OC)c(CN3CCN(c4ccc(C(=O)NS(=O)(=O)c5ccc(NCCSc6ccccc6)c(C(F)(F)F)c5)nn4)CC3)c(OC)c2)c1 [B2R086-01]
